Reference: publication PMC2191358 (The Journal of Experimental Medicine, 1994)
Residues, ends and D or L forms follow the SMILES beside them.

How the values were obtained:
[1] = biological target: TAP translocator (H-2d-derived microsomes) (Mus musculus, UniProt P21958+P36371); assay: biochemical
mouse microsomes = assay: Efflux of labeled peptide from loaded mouse microsomes; format: biochemical; details: mouse liver microsomes in the presence of ATP; HPLC; data not shown
[2] = test system: mouse TAP1/TAP2 translocator; assay: Accumulation of labeled peptide in mouse liver microsomes; details: microsomes from TAP1 mutant (C57Bl/6 x 129/SV) mice; means of duplicates

TAP translocator (H-2d-derived microsomes), sequence (P21958 whole entry): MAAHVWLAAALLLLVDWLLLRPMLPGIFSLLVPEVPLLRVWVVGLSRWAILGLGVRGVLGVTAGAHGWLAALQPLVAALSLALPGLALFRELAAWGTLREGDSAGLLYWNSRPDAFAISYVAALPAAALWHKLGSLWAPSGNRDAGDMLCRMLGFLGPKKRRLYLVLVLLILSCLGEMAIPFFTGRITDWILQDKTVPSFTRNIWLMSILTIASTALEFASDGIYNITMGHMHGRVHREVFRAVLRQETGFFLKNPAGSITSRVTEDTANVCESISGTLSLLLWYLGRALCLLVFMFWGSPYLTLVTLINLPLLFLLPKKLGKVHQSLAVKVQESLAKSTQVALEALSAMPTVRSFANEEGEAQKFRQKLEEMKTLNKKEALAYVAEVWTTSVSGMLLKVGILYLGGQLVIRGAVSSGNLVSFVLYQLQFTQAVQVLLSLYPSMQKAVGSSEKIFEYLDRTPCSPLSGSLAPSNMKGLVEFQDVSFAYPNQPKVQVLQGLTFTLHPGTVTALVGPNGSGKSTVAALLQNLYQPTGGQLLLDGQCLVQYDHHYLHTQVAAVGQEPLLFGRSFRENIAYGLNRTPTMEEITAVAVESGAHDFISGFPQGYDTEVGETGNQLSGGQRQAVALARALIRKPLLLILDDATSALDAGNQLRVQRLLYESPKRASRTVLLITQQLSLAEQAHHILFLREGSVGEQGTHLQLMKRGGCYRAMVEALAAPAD
TAP translocator (H-2d-derived microsomes), sequence (P36371 whole entry): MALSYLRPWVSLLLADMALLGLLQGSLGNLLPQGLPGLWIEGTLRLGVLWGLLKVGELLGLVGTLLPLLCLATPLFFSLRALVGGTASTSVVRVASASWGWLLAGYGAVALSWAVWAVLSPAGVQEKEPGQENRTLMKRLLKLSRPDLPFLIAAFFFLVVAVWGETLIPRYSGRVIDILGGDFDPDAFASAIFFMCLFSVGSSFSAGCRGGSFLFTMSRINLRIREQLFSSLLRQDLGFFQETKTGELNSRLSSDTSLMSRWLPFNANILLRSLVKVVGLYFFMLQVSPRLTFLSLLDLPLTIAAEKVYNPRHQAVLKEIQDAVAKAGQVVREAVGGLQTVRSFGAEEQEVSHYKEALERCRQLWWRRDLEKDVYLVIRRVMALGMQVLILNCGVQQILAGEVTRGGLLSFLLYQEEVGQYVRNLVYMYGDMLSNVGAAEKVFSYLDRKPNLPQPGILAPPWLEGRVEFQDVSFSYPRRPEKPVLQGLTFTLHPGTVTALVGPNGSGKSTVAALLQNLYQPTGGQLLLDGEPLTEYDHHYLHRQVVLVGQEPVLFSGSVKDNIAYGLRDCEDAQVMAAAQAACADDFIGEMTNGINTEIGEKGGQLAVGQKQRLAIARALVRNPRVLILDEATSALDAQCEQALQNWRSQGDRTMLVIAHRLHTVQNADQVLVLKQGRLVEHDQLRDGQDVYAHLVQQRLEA

| Compound | IC50 [1] [µM] | Integrity of material accumulated by and released from microsomes (mouse microsomes) | Accumulation of labeled peptide in TAP- microsomes [2] |
| --- | --- | --- | --- |
| CC(C)C[C@H](NC(=O)[C@H](C)NC(=O)[C@H](CCCNC(=N)N)NC(=O)[C@@H](NC(=O)[C@H](CCCNC(=N)N)NC(=O)[C@H](CCC(N)=O)NC(=O)[C@H](Cc1ccc(O)cc1)NC(=O)[C@@H](N)[C@@H](C)O)[C@@H](C)O)C(=O)N[C@H](C(=O)O)C(C)C (H-TYQRTRALV-OH) | 3 |  |  |
| CC(C)C[C@H](NC(=O)[C@H](C)NC(=O)[C@@H]1CCCN1C(=O)[C@H](Cc1ccc(O)cc1)NC(=O)[C@H](CC(N)=O)NC(=O)CNC(=O)[C@@H]1CCCN1C(=O)[C@H](C)NC(=O)[C@@H](N)Cc1ccccc1)C(N)=O [FAPGNYPAL] | 3 | largely intact |  |
| TYNRTRALI |  |  | do not accumulate |
